Source: patent US11022556B2, “Tetrazolium compound for detecting microorganisms, reagent for detecting microorganisms and method for detecting microorganisms” (JNC CORPORATION, priority 2010, dated 2021)

Assays:
[1] = absorption wavelength and colour of the formazan dye formed from the tetrazolium compound; assay type: physicochemical; conditions: formazan dye produced by reduction of the tetrazolium compound
[2] = test system: general viable cells; assay: comparative test for detecting microorganisms on sheet media for detecting general viable cells; assay type: cell-based; conditions: food samples (meat, precut vegetables, delicatessens); sheet medium with 0.03 g/m^3 reagent; 35° C.; 24 hours incubation vs 48 hours for 2,3,5-triphenyltetrazolium chloride
Experimental: Next, the results obtained by a comparative test for detecting microorganisms using the chromogenic reagent of Example 1 and the chromogenic reagent of Comparative Example are described below. The comparative test was performed as follows. First, sheet media for detecting general viable cells containing as the chromogenic reagent 0.03 g/m^3 each of tetrazolium compound A of Example 1 and 2,3,5-triphenyltetrazolium chloride of Comparative Example, respectively, were prepared. The sheet media for general viable cells were the same except that the chromogenic reagents were different.
Then, 10 g of either one of meat, precut vegetables, delicatessens, etc. was put into a sterilized bag and 100 ml of sterile saline was added thereto. The mixture was homogenized with a stomacher. […]
The sheet medium of Example 1 for detecting general viable cells containing the chromogenic reagent was incubated for 24 hours and the sheet medium for detecting general viable cells containing the chromogenic reagent for comparison was incubated for 48 hours, respectively, both at 35° C. The viable cell counts were compared between the count of viable cells visually detected by the chromogenic reagent of Example 1 and the count of viable cells detected by the chromogenic reagent of Comparative Example. […]

Structure (SMILES)	colour developed by the formazan dye [1]	peak of absorption wavelength of the formazan dye formed [1]	number of colonies (viable cell count) visually detected, compared with the chromogenic reagent of Comparative Example [2]
COc1cc([N+](=O)[O-])ccc1-n1nc(-c2ccccc2)n[n+]1-c1ccc([N+](=O)[O-])cc1.[Cl-] [tetrazolium compound B, 2-(2-Methoxy-4-nitrophenyl)-3-(4-nitrophenyl)-5-phenyltetrazolium chloride]	blue to bluish purple	approximately 410 nm	the colonies were detected in the same number as in or more than
COc1ccccc1-n1nc(-c2ccccc2)n[n+]1-c1ccc([N+](=O)[O-])cc1.[Cl-] [tetrazolium compound A, 2-(2-Methoxyphenyl)-3-(4-nitrophenyl)-5-phenyltetrazolium chloride]	blue to bluish purple	approximately 410 nm	almost the same number or more of colonies were detected
